Reference: publication PMC6927413 (Chemical Communications (Cambridge, England), 2019)
Entries after “also recorded” stand apart in the source; their conditions may differ. Where two headings read alike, the source gives them in different places.

Assays:
[1] = target: T1, wt-psBBOX (Pseudomonas sp., UniProt P80193); details: Km for 2OG; cited from earlier work
[2] = target: T2, psBBOX-Y201C-BFA (psBBOX*) (Pseudomonas sp., UniProt P80193, Y201C); assay: 1H NMR inhibition assay of psBBOX-Y201C-BFA (psBBOX*) catalysed GBB turnover; format: biochemical, Pseudomonas sp. AK1
T2 construct: hexa-His tag (pCOLDI) (N); made in house; host or cells: E. coli BL21 (DE3)
T2 sequence (P80193 whole entry Y201C): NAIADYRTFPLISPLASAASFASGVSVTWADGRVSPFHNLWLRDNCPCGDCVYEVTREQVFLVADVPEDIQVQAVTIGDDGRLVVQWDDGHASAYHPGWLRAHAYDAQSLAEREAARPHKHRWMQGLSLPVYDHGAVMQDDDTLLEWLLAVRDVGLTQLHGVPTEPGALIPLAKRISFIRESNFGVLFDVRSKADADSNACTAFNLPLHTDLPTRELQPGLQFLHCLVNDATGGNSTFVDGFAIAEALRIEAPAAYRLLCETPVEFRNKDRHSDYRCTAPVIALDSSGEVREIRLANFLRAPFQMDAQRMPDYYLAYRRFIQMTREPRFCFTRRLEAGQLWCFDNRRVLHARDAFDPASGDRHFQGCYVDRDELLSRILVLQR
Method: (§1) in 20 mM HCl in D2O), 200 μM GBB (Cl- salt), 600 μM 2OG, in Tris-d11 (pH 7.5 in H 2O).
(§2) 2OG, in phosphate buffer (50 mM, pH 7.1, pD 7.5, in D2O). […]
([(NH4)2Fe(SO4)2.6H2O] in 20mM HCl in D2O), 600 μM 2OG, 500 μM L-ascorbate (di-sodium salt), in Tris-d11 ( p H 7 . 5 i n H 2O ) . […]

[3] = target: T1, wt-psBBOX; details: 2 μM psBBOX, 50 μM metal, 50 mM HEPES pH 7.5; for Tm Shift: relative to protein without metal
Method: psBBOX Differential Scanning Fluorimetry (DSF) assays
See also Supplementary Figure S5. […]
concentration 50 μM). Controls contained 10 μL of buffer instead of metal solution. 2 mL of master mix was prepared by mixing 1.25 mL stock of sypro orange (made by diluting 1 μL of […]
and 739 μl of 50 mM HEPES pH 7.5. […]
μL. Metal solutions were made freshly. Experiments was carried out in triplicate.
DSF was performed using a MiniOpticon Real-Time PCR Detection System (Bio-Rad), monitoring protein unfolding using SYPRO orange (Invitrogen) according to reported […]
nm) filters were used for excitation and the emission, respectively. Reaction mixtures contained: 2 μM protein, 50 μM metal and 1 × SYPRO orange (final volume 50 μL). Reagents were prepared in 50 mM HEPES buffer pH 7.5. Iron solution was prepared shortly before […]
temperature increased linearly by 1 °C per minute.
The inflection point, representing Tm, was calculated by fitting the Boltzmann equation to the sigmoidal curves obtained; data were processed using GraphPad Prism 5.0. The Tm shift caused by the addition of small molecules/fragments was determined by subtraction of the “reference” Tm (protein without metal) from the Tm obtained in the presence of the metal.

[4] = test system: hBBOX; details: cited from earlier work
[5] = target: T3, psBBOX*-Zn(II) (Pseudomonas sp., UniProt P80193, Y201C); assay: Protein-observed 19F NMR (PrOF) ligand titrations with psBBOX*; format: binding, Pseudomonas sp. AK1; details: for effect on the original psBBOX* 19F NMR signal: titration with psBBOX*-Zn(II)
T3 construct: hexa-His tag (pCOLDI) (N); made in house; host or cells: E. coli BL21 (DE3)
T3 sequence (P80193 whole entry Y201C): as above
Method: NMR materials and methods2 […]
broadening of 20 Hz was applied using MestReNova version 11.0. Spectra were referenced to […]
contained: 100 μM psBBOX* in Tris buffer (50 mM, pH 7.5) and 200 mM NaCl in 90% H2O and […]

[6] = target: T2, psBBOX-Y201C-BFA (psBBOX*); assay: 1H NMR binding assay with psBBOX-Y201C-BFA (psBBOX*); design: species or system Pseudomonas sp. AK1
Method: as §1, §2

[7] = target: T4, psBBOX (Pseudomonas sp., UniProt P80193); format: binding, Pseudomonas sp. AK1; details: 1H NMR reporter assay; for GBB displacement: titration into psBBOX-Zn(II)-2OG-GBB complex; for displacement of GBB and 2OG from the psBBOX active site: wild-type psBBOX
T4 construct: N-terminal hexa-His tag (pCOLD I vector); printed for the Y201C variant, inferred for wild type from the pCOLD template (N); made in house; host or cells: Escherichia coli
From the text: NMR based reporter BBOX assays, using either Zn^(II) or Mn^(II) (making use of paramagnetic relaxation enhancement (PRE)) to observe ligand binding are reported.[25] These enable monitoring of co/substrate 2OG/γ-butyrobetaine (GBB; 3) psBBOX binding and inform on binding modes of inhibitors, including whether they displace GBB and/or 2OG. We now report ^19F NMR studies on ligand binding to BBOX; the work was initiated following ^1H NMR observations concerning the binding of Mildronate to psBBOX.
Since psBBOX is dimeric[21],[22] (Fig. 1C), these observations led to the proposal that binding of a second molecule of GBB (or Mildronate) to the psBBOX-Zn^(II)-2OG–GBB complex strengthens binding of the first GBB molecule, i.e. there is cooperativity in substrate binding between the monomers of the dimer.

[8] = target: T4, psBBOX; details: reported GBB substrate analogues, hydroxylated to L-carnitine analogues; cited from earlier work
[9] = target: T1, wt-psBBOX; assay: Fluoride release assay; format: biochemical, Pseudomonas sp. AK1; design: N-terminal hexa-His tag (pCOLD I vector); printed for the Y201C variant, inferred for wild type from the pCOLD template (N); made in house; host or cells: Escherichia coli
Method: The combined NMR studies on ligand binding led to the proposal that a new BBOX inhibitor scaffold could be identified by directly incorporating analogues of identified 2OG and GBB binding motifs, comprising appropriately positioned metal chelating and quaternary ammonium moieties, giving a ‘co-substrate/substrate’ mimic. With this in mind, RL190B (8) was synthesised (ESI ^†); it is a relatively potent psBBOX inhibitor (IC50 = 5 μM (fluoride release assay)[31]). […] By contrast with other ligand titrations using psBBOX* such significant line broadening was not observed (e.g. Fig. S11–S13, ESI ^†). Broadening of signals in PrOF NMR is often typical of weaker inhibitors; the significant (and unusual amongst studied compounds) signal attenuation observed with (8) may be a result of its binding in both 2OG and GBB cavities. This may cause changes of conformational mobility/protein destabilisation, potentially yielding a number of indistinct conformational states.
(B) RL190B is a 2OG and substrate mimic. (C) RL190B causes attenuation of the psBBOX* ^19F NMR signal. (D) RL190B inhibition of wt-psBBOX as determined by a fluoride release assay.[31] TEXT PRINTED IN THE PICTURE: (D) RL190B (8): IC50 (psBBOX) = 5 μM

[10] = test system: BBOX; design: method as in earlier work; details: 2OG-competing, metal-chelating BBOX inhibitor; cited from earlier work

T1 sequence (P80193 whole entry): as the sequence (P80193 whole entry Y201C) above, with C201Y counted along it

Question: For `O=C(O)CCC(=O)C(=O)O` [2OG, 2-oxoglutarate], which Km [1] is on record?
Answer: Its Km is 532 µM.

Question: Which IC50 [2] does the source give for `O=C(N[C@@H](CSCc1ccccn1)C(=O)O)c1ncccc1O` [AR692B] here?
Answer: The IC50 was 245 µM.

Question: Which results are given for `[Co+2]` [Co(II)]?
Answer: Tm [3]: 6.6±2.2; Tm Shift [3]: 15.7±0.8 °C

Question: With `[Cu+2]` [Cu(II)] as the compound, how does the Tm [3] read?
Answer: The Tm was 6.3±0.5.

Question: What about the “Tm Shift” value [3] of the same compound?
Answer: Its value is 12.4±1.1 °C.

Question: Which “Tm Shift” value [3] does the source give for `[Fe+2]` [Fe(II)] here?
Answer: Its value is 8.4±0.7 °C.

Question: Which “Tm Shift” value [3] does the source give for `[K+]` [K(I)] here?
Answer: Its value is 0.0±0.1 °C.

Question: Which results are given for `[Mg+2]` [Mg(II)]?
Answer: Tm [3]: 20.1±0.2; Tm Shift [3]: 0.0±0.1 °C

Question: Which results are given for `C[N+](C)(C)NCCC(=O)[O-]` [Mildronate, reference compound]?
Answer: IC50 [4]: 34 to 60 µM; change of 19F NMR spectrum on addition to psBBOX*-Zn(II)-GBB-2OG ([5]; psBBOX*-Zn(II)-GBB-2OG): does not change; also recorded: did not manifest detectable changes; Kd [6]: 12.3 ± 1 µM; inhibition of psBBOX* catalysed GBB turnover ([2]; 1H NMR, 2.5 μM psBBOX*, 100 μM Fe(II), 200 μM GBB, 600 μM 2OG): unable to detect inhibition; GBB displacement [7]: ≤ 60%; GBB displacement ([7]; listed as 4): ~60%

Question: With `[Mn+2]` [Mn(II)] as the compound, how does the Tm [3] read?
Answer: Its Tm is 17.7±1.4.

Question: What about the “Tm Shift” value [3] of the same compound?
Answer: Its value is 1.3±0.2 °C.

Question: For `[Na+]` [Na(I)], which Tm [3] is on record?
Answer: Its Tm is 20.5±0.4.

Question: And the “Tm Shift” value [3]?
Answer: The value was 0.2±0.1 °C.

Question: With `[Ni+2]` [Ni(II)] as the compound, how does the Tm [3] read?
Answer: Its Tm is 12.3±0.2.

Question: What about the “Tm Shift” value [3] of the same compound?
Answer: The value was 18.1±0.1 °C.

Question: For `C[P+](C)(C)CCCC(=O)[O-]` [P-GBB], which “substrate for psBBOX” value [8] is on record?
Answer: Its value is “substrates”.

Question: Which results are given for `C[N+](C)(C)CCCCN(O)C(=O)/C=C/C(=O)O` [RL190B, (E)-4-(3-Carboxy-N-hydroxyacrylamido)-N,N,N-trimethylbutan-1-aminium]?
Answer: effect on the original psBBOX* 19F NMR signal [5]: attenuation; effect on the original psBBOX* 19F NMR signal ([5]; listed as 8): significant broadening and almost complete attenuation; IC50 [2]: 15 µM; IC50 [9]: 5 µM; displacement of GBB and 2OG from the psBBOX active site [7]: displaces both GBB and 2OG; displacement of GBB and 2OG from the psBBOX active site ([7]; listed as 8): displace both GBB and 2OG

Question: Which results are given for `[Zn+2]` [Zn(II)]?
Answer: Tm [3]: 6.6±0.7; Tm Shift [3]: 12.8±1.3 °C

Question: With `O=C(N[C@@H](Cc1c[nH]c2ccccc12)C(=O)O)c1nc(Cl)c2ccccc2c1O` [compound 5] as the compound, how does the IC50 [10] read?
Answer: The IC50 was 0.9 µM.
